Values after ≈ are worked out from the molar mass of the structure shown. Peptide text beside a SMILES is read from it.

Experiment [1] relates to A. fumigatus conidia. The experiment is described as follows: Time-kill assay in culture media. Type of experiment: cell-based, Aspergillus fumigatus. The following applies: A. fumigatus conidia (n = 2), inoculum 1 × 10^5 cells/ml, antibiotic medium 3. Here is the method: (§1) For Candida spp., the cells were grown for at least 18 to 24 h at 30°C, until visible growth was observed. The cells were then centrifuged and resuspended in sterile distilled H2O and diluted to the 0.5 McFarland standard density using 2× RPMI 1640 medium. The tested antifungals were prepared at twice the required concentration. Then, 1 ml of the inoculum was added to 1 ml of the antifungal solution and incubated at 30°C. Every hour over the course of 8 h, 20 μl of the culture was removed and 10-fold serial dilutions were prepared (from 1 × 10^−1 to 1 × 10^−7). Then, 50 μl of each dilution was plated on SAB agar (Sigma) in triplicate. The plates were incubated at 30°C until colonies were observed on the control plates with vehicle-treated fungi. The colonies were counted, and the percentage killed was determined based on the reduction in the number of CFU/ml in the treated samples compared with the vehicle-treated, untreated controls.
For A. fumigatus, a subculture was grown on a SAB agar (Sigma) slant for 72 h at 35°C until sporulation. A. fumigatus cells were harvested from the slant into 0.15 M NaCl (Fisher Scientific UK, Ltd.), and conidia were isolated by passing through an EASYStrainer cell sieve (70-μm pore; Greiner Bio-One, Gloucester, United Kingdom) The conidial suspension was diluted to 1 × 10^5 CFU/ml in 2× antibiotic medium 3 (Oxoid). For germling analysis, the conidial suspension was incubated for 8 h at 35°C prior to analysis; for conidial experiments, it was used immediately. The experiment was performed as described for Candida spp.

Experiment [2] concerns C. albicans SC5314. The class given is cell-based, Candida albicans. The following applies: 30 passages in 0.25× MIC of the same antifungal, MIC at passage 0 normalized to 1, average of three independent replicates. On the procedure: (§2) Cell growth of all fungi was followed by measuring the optical density at 530 nm (OD530) using the Powerwave XS plate reader (Biotek, Swindon, United Kingdom).
(§3) The fungal inoculum was prepared according to the CLSI standard M27-A3 ([32]). For the analysis, 100 μl of the antifungal stock was added to a 96-well polystyrene plate in triplicate. […] The passaging was repeated 30 times. Every five passages, a full MIC analysis was done, as specified above.

Experiment [3] deals with C. auris. Nature of the experiment: Time-kill assay in culture media. Type of experiment: cell-based, Candida auris. The following applies: C. auris (n = 1), inoculum 1 × 10^6 to 5 × 10^6 cells/ml. On the procedure:
as §1, with “The plates were incubated at 30°C until colonies were observed on the control plates with vehicle-treated fungi.” left out

The subject of experiment [4] is C. tropicalis AM2005/0568. Type of experiment: cell-based, Candida tropicalis. The following applies: 30 passages in 0.25× MIC of the same antifungal, passage 0 = 1, average of three independent replicates. Here is the method: as §2, §3
For experiment [5], the system named is C. auris DSMZ1092. The class given is cell-based, Candida auris. The settings on record: 30 passages in 0.25× MIC of the same antifungal, passage 0 = 1, average of three independent replicates. Here is the method: as §2, §3
Experiment [6] has as its system C. glabrata AM2007/0125. The class given is cell-based, Candida glabrata. The following applies: 30 passages in 0.25× MIC of the same antifungal, passage 0 = 1, average of three independent replicates. Here is the method:
as §2, §3

In experiment [7] the test system is C. albicans AM2003-0182. The experiment is described as follows: Transmission electron microscopy of planktonic cells. Type of experiment: cell-based, Candida albicans. The following applies: 1× MIC, 30 min exposure. Here is the method:
For the TEM analysis, an overnight culture of C. albicans AM2003-0182 was diluted to a density of 1 × 10^8 cells/ml in 2× RPMI 1640 medium, and the mixture was incubated at 35°C for 1 h. The cells were then washed three times in sterile water and once in 0.01 M sodium phosphate buffer. […] The cells were then fixed in 2.5% (vol/vol) glutaraldehyde and stored at 4°C before analysis. For TEM analysis, the cells were dehydrated in an ethanol and acetone series before being embedded in […] resin, stained with uranyl acetate/lead citrate stains to improve contrast, sectioned to a 90-nm thickness, and mounted onto copper grids for TEM analysis. TEM micrographs were acquired using a JEM-1400 Plus JEOL transmission electron microscope. Microscopy was performed in the Microscopy and Histology Core Facility at the University of Aberdeen (United Kingdom).

The test system of experiment [8] is C. albicans AM2003-0182. Nature of the experiment: MIC (CLSI) of the agents used for TEM. Type of experiment: cell-based, Candida albicans. The settings on record: standard CLSI methods.
The test system of experiment [9] is C. albicans. The experiment is described as follows: Time-kill assay in culture media. The class given is cell-based, Candida albicans. The settings on record: C. albicans (n = 2), inoculum 1 × 10^6 to 5 × 10^6 cells/ml, RPMI 1640, 30°C. Here is the method:
The tested antifungals were prepared at twice the required concentration. Then, 1 ml of the inoculum was added to 1 ml of the antifungal solution and incubated at 30°C. Every hour over the course of 8 h, 20 μl of the culture was removed and 10-fold serial dilutions were prepared (from 1 × 10^−1 to 1 × 10^−7). Then, 50 μl of each dilution was plated on SAB agar (Sigma) in triplicate. […] The colonies were counted, and the percentage killed was determined based on the reduction in the number of CFU/ml in the treated samples compared with the vehicle-treated, untreated controls.

For experiment [10], the system named is C. albicans NCTC 3179. The class given is cell-based, Candida albicans. The settings on record: NCTC 3179, 24 h.
Method: MIC values were determined following the CLSI-approved Reference Method for Broth Dilution Antifungal Susceptibility Testing of Yeasts (approved standard M27-A3) ([32]) in RPMI 1640 medium (Sigma, Dorset, United Kingdom) at 35°C. For all filamentous fungi, the CLSI standard M38-A2 ([33]) was followed, in RPMI 1640 medium at 35°C. Cell growth of all fungi was followed by measuring the optical density at 530 nm (OD530) using the Powerwave XS plate reader (Biotek, Swindon, United Kingdom).

`C[C@@H](c1ncncc1F)[C@](O)(Cn1cncn1)c1ccc(F)cc1F` [Voriconazole]: the “Time of kill (time taken to kill 2 logs)” value in experiment [1] (final concn 2–8 mg/liter = 16× MIC) was found to be 48 h.
On to `C[C@@H]1[C@H](O)[C@@H](C)/C=C/C=C/C=C/C=C/C=C/C=C/C=C/[C@H](O[C@@H]2O[C@H](C)[C@@H](O)[C@H](N)[C@@H]2O)C[C@@H]2O[C@](O)(C[C@@H](O)C[C@@H](O)[C@H](O)CC[C@@H](O)C[C@@H](O)CC(=O)O[C@H]1C)C[C@H](O)[C@H]2C(=O)O` [Amphotericin B], for which the “Fold change in antifungal MIC at passage 30” value in experiment [2] was determined as 4; in [4], 4; in experiment [5] it was 4; in [6], 1. The “Time of kill (time taken to kill 2 logs)” value in [1] (final concn 2–8 mg/liter = 4–16× MIC) stood at 48 h. In experiment [3] (final concn 32 mg/liter = 16× MIC (amphotericin B)), the “Time of kill (time taken to kill 3 logs)” value stood at 4 h.
On to `CC[C@H](C)C[C@H](C)CCCCCCCCC(=O)N[C@H]1C[C@@H](O)[C@@H](NCCN)NC(=O)[C@@H]2[C@@H](O)CCN2C(=O)[C@H]([C@H](O)CCN)NC(=O)[C@H]([C@H](O)[C@@H](O)c2ccc(O)cc2)NC(=O)[C@@H]2C[C@@H](O)CN2C(=O)[C@H]([C@@H](C)O)NC1=O` [Caspofungin], for which the “Fold change in antifungal MIC at passage 30” value came out at 4 in experiment [2], 8 in experiment [4], 1 in experiment [5] and 1 in [6]. In [7], the “Cell destruction (lysis) seen by TEM” value was “not observed”. The “MIC (1× MIC, final concentration used for TEM)” value in [8] turned out to be 0.5 µg/mL. In addition, the “Time of kill (time taken to kill 2 logs)” value in [1] (final concn 2–32 mg/liter = 1–16× MIC) turned out to be 48 h. In addition, the figures for the “Time of kill (time taken to kill 3 logs)” value in experiment [3] (final concn 16 mg/liter = 16× MIC) and in experiment [9] (final concn 1 mg/liter = 4× MIC) were 6–24 h and 4 h, respectively.
In turn, `N=C(N)NCCC[C@H](NC(=O)[C@H](CCCNC(=N)N)NC(=O)[C@H](CCCNC(=N)N)NC(=O)[C@H](CCCNC(=N)N)NC(=O)[C@H](CCCNC(=N)N)NC(=O)[C@H](CCCNC(=N)N)NC(=O)[C@H](CCCNC(=N)N)NC(=O)[C@H](CCCNC(=N)N)NC(=O)[C@H](CCCNC(=N)N)NC(=O)[C@H](CCCNC(=N)N)NC(=O)[C@@H](N)CCCNC(=N)N)C(=O)O` yielded an MIC in experiment [10] of 8 µM (≈ 13.9 µg/mL).
As to `CC[C@@H]([C@H](C)O)n1ncn(-c2ccc(N3CCN(c4ccc(OC[C@@H]5CO[C@@](Cn6cncn6)(c6ccc(F)cc6F)C5)cc4)CC3)cc2)c1=O` [Posaconazole], the “Time of kill (time taken to kill 2 logs)” value in experiment [1] (final concn 4 mg/liter = 16× MIC) is listed as 24 h.
For `N=C(N)NCCC[C@H](NC(=O)[C@H](CCCNC(=N)N)NC(=O)[C@H](CCCNC(=N)N)NC(=O)[C@H](CCCNC(=N)N)NC(=O)[C@@H](N)CCCNC(=N)N)C(=O)O` [RRRRR] (H-RRRRR-OH), the MIC in experiment [10] is recorded as >2,048 μM.
The same measure, in the same setting: the figure for `N=C(N)NCCC[C@H](NC(=O)[C@H](CCCNC(=N)N)NC(=O)[C@H](CCCNC(=N)N)NC(=O)[C@H](CCCNC(=N)N)NC(=O)[C@H](CCCNC(=N)N)NC(=O)[C@H](CCCNC(=N)N)NC(=O)[C@H](CCCNC(=N)N)NC(=O)[C@H](CCCNC(=N)N)NC(=O)[C@@H](N)CCCNC(=N)N)C(=O)O` is 2,048 μM.
As to `OC(Cn1cncn1)(Cn1cncn1)c1ccc(F)cc1F` [Fluconazole], in [9] (final concn 32 mg/liter = 32× MIC), the “Time of kill (time taken to kill 3 logs)” value was 6 h.
`N=C(N)NCCC[C@H](NC(=O)[C@H](CCCNC(=N)N)NC(=O)[C@@H](N)CCCNC(=N)N)C(=O)O` [RRR] (H-Arg-Arg-Arg-OH): the MIC in experiment [10] was >2,048 μM.
On to “human β-defensin 2 (GIGDPVTCLKSGAICHPVFCPRRYKQIGTCGLPGTKCCKKP; UniProt O15263 24-64, looked up) [endogenous human host defense peptide used as comparator in TEM]”, for which, in experiment [7], the “Cell destruction (lysis) seen by TEM” value was “not observed”. For the same compound, in [8], the “MIC (1× MIC, final concentration used for TEM)” value was determined as 25 µg/mL.
Regarding `N=C(N)NCCC[C@H](NC(=O)[C@H](CCCNC(=N)N)NC(=O)[C@H](CCCNC(=N)N)NC(=O)[C@H](CCCNC(=N)N)NC(=O)[C@H](CCCNC(=N)N)NC(=O)[C@H](CCCNC(=N)N)NC(=O)[C@@H](N)CCCNC(=N)N)C(=O)O` [RRRRRRR], the MIC in [10] is >2,048 μM.

As usually defined, the MIC is the smallest concentration in the dilution series that meets the test's criterion for growth inhibition. Low values mean inhibition by little substance, high ones a need for much substance.

The values are drawn from article PMC8284473, “Preliminary Characterization of NP339, a Novel Polyarginine Peptide with Broad Antifungal Activity” (Antimicrobial Agents and Chemotherapy, 2021).
